Where two headings read alike, the source gives them in different places.
Columns and labels:
[1] = test system: wild type yeast (BY4741) and null mutants; assay: Yeast chronological aging, survival plating (clonogenicity); assay type: cell-based
Procedure: Experiments were carried out in BY4741 (MATa his3Δ1 leu2Δ0 met15Δ0 ura3Δ0) and respective null mutants, obtained from Euroscarf. The double mutant Δiki3Δsas3 was generated according to Gueldener at al. (2002) Nucleic Acids Res. 30, e23 by using gene-specific URA3-knockout cassette, amplified by PCR with pUG72 as template (Lovaas & Carlin (1991) Free Radic Biol Med 11, 455-46.). […] All spe1 double mutant strains were obtained through mating and sporulation of BY4741 Δspe1 with the respective BY4742 ([…]) single mutant strains. Single and double mutant strains were verified for correct gene deletion by PCR and further checked for consistent auxotrophies. […] Strains were grown at 28° C. on SC medium containing 0.17% yeast nitrogen base (Difco), 0.5% (NH4)2SO4 and 30 mg/l of all amino acids (except 80 mg/l histidine and 200 mg/l leucine), 30 mg/l adenine, and 320 mg/l uracil with 2% glucose (SCD). […] To construct NHP6A-EGFP in pUG35-Ura (giving rise to a C-terminally tagged chimeric fusion protein under control of the met25-Promotor) the insert was amplified by PCR using genomic DNA from BY4741 as template and cloned into pUG35 using the EcoRI restriction site. The EGFP-ATG8 construct in pUG36-Ura (N-terminally tagged fusion protein) was similarly generated, using EcoRI and ClaI restriction sites.
In case of experiments with Δspe1 (FIG. 24 A-E), all strains were inoculated to 5·10^4 cells/ml. […] Therefore, for calculation of survival rates in experiments using Δiki3Δsas3, cell numbers of each sample were determined after two pulse of sonication on ice with Sonifier 250 from Benson (Duty Cycle: 35; Output Control: 2.5). Tests for apoptotic (TUNEL and Annexin V staining) and necrotic (PI staining) markers as well as markers for oxidative stress (DHE staining) were performed as described in Dod et al. (1982) Eur J Biochem 121, 401-405). For quantifications using flow cytometry (BD FACSAria), 30,000 cells were evaluated and analyzed with BD FACSDiva software. Spermidine (S4139, Sigma, Austria) and putrescine (P5780, Sigma, Austria; 1 mM final concentration) were added to stationary cultures at day 1 of the aging experiments (24 h after inoculation). 1 M aqueous stock solution of spermidine was stored in one use aliquots at −20° C. for no longer than 1 month. For adjustment of extracellular pH (pHex) to 6 (±0.5), the required amount of sodium hydroxide was added 30 h after inoculation. The pHex was maintained at approximately 6 (±0.5) throughout the aging.

[2] = test system: acute liver injury; settings: cited from earlier work

**Q.** Which “chronological life span of polyamine depleted cells” value [1] does the source give for `NCCCCN` [putrescine, 1,4-diamino-butane] here?
**A.** restored

**Q.** What about the “effect on acute liver injury” value ([2]; administered 2, 5 and 8 hours after injection of cadmium chloride) of the same compound?
**A.** protective effect

**Q.** And the “effect on acute liver injury” value ([2]; administered 12, 15 and 18 h after cadmium injection)?
**A.** did not provide a protective effect

From patent US20120015901A1, “METHODS AND PREPARATIONS FOR PROTECTING CRITICALLY ILL PATIENTS” (priority 2009, published 2012)
